Source: ChEMBL document CHEMBL2390900, “The use of virtual screening and differential scanning fluorimetry for the rapid identification of fragments active against MEK1” (Bioorg Med Chem Lett, 2013)

Key:
[1] = target: T1, Dual specificity mitogen-activated protein kinase kinase 1 (Homo sapiens, UniProt Q02750); assay: Inhibition of MEK1 (unknown origin) using ATP and ERK2 K54R as substrate after 60 to 80 mins by HTRF assay
[2] = target: T1, Dual specificity mitogen-activated protein kinase kinase 1
Description: Binding affinity to MEK1 (unknown origin) assessed as fluorescence intensity every 0.2 degC at 500 uM at 20 degC to 90 degC by differential screening fluorimetry analysis

[3] = target: T1, Dual specificity mitogen-activated protein kinase kinase 1; remark: listed apart in the source

T1 sequence (Q02750 whole entry): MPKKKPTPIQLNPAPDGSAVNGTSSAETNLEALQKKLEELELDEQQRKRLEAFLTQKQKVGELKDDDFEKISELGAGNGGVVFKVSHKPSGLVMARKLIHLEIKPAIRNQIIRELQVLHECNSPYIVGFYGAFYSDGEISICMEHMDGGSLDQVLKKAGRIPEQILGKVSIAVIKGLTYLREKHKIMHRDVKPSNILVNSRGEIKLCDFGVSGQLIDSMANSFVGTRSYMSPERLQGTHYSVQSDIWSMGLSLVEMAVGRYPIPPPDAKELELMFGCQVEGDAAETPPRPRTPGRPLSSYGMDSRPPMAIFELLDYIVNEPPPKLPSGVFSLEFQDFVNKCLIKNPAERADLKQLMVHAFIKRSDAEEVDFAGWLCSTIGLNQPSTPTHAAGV

Compound	IC50 [1]	ΔTm [2]	RU [3]
CC1(O)CCN2C(=O)CCc3cccc1c32 (centres undefined)	18.1 µM	3.8 °C	–
O=c1[nH]ccc2cc(O[C@@H]3CCCNC3)c(Cl)cc12	–	0.2 °C	0.3
